Measurements reported in US5254728A, “Complexes containing S(+)-phenyl alkanoic acids and α-hydroxyalkanoic” (priority 1990, dated 1993).

Key:
[1] = in vivo
[2] = pH 9.5; cited from earlier work

tmax [1]	Molecule	stability [2]
20 min	S(+)-ibuprofen-L-(+)-lactic acid complex	–
–	CC(O)C(=O)O (centres unmarked) [lactic acid]	not being stable
